Reference: ChEMBL document CHEMBL5523713, “Development of novel N-aryl-2,4-bithiazole-2-amine-based CYP1B1 degraders for reversing drug resistance” (Eur J Med Chem, 2024)

Experiments:
Type in all cases: ADME, cell-based
[1] = target: T1, Protein cereblon/Cytochrome P450 1B1 (Homo sapiens, UniProt Q16678+Q96SW2); experiment: PROTAC activity at CRBN/CYP1B1 in human A549/Taxol cells assessed as degradation by measuring fold change in remaining CYP1B1 level at 1000 nM incubated for 24 hrs by Western blotting analysis (reference value: 1); conditions: 1 µM
[2] = target: T1, Protein cereblon/Cytochrome P450 1B1; experiment: PROTAC activity at CRBN/CYP1B1 in human A549/Taxol cells assessed as degradation by measuring fold change in remaining CYP1B1 level at 1 nM incubated for 24 hrs by Western blotting analysis (reference value: 1); conditions: 0.001 µM
[3] = target: T2, von Hippel-Lindau disease tumor suppressor/Cytochrome P450 1B1 (Homo sapiens, UniProt Q16678+P40337); experiment: PROTAC activity at VHL/CYP1B1 in human A549/Taxol cells assessed as degradation by measuring fold change in remaining CYP1B1 level at 1 nM incubated for 24 hrs by Western blotting analysis (reference value: 1); conditions: 0.001 µM
[4] = target: T2, von Hippel-Lindau disease tumor suppressor/Cytochrome P450 1B1; experiment: PROTAC activity at VHL/CYP1B1 in human A549/Taxol cells assessed as reduction in CYP1B1 level at 1000 nM incubated for 24 hrs by Western blotting analysis; set-up: scale not given: the % may be the effect or the level left; conditions: 1 µM
[5] = target: T2, von Hippel-Lindau disease tumor suppressor/Cytochrome P450 1B1; experiment: PROTAC activity at VHL/CYP1B1 in human A549/Taxol cells assessed as reduction in CYP1B1 level at 1 nM incubated for 24 hrs by Western blotting analysis; set-up: scale not given: the % may be the effect or the level left; conditions: 0.001 µM
[6] = target: T2, von Hippel-Lindau disease tumor suppressor/Cytochrome P450 1B1; experiment: PROTAC activity at VHL/CYP1B1 in human A549/Taxol cells assessed as degradation by measuring fold change in remaining CYP1B1 level at 1000 nM incubated for 24 hrs by Western blotting analysis (reference value: 1); conditions: 1 µM

T1 sequence (Q16678 whole entry): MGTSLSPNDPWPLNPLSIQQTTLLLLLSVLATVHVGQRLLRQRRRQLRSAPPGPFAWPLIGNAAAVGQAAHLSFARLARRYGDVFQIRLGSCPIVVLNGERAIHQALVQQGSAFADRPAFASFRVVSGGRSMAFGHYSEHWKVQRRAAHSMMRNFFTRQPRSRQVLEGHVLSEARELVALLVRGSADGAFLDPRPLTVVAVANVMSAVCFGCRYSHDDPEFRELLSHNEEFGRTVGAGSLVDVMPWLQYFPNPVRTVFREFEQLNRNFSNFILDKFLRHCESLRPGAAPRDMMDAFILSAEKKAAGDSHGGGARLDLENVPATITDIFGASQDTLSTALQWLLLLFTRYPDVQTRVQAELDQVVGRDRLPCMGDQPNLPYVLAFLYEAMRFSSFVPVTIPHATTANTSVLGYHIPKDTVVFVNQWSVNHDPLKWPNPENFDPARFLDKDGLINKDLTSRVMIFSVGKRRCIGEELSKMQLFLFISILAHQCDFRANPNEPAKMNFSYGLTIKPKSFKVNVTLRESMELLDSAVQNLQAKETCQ
T1 sequence (Q96SW2 whole entry): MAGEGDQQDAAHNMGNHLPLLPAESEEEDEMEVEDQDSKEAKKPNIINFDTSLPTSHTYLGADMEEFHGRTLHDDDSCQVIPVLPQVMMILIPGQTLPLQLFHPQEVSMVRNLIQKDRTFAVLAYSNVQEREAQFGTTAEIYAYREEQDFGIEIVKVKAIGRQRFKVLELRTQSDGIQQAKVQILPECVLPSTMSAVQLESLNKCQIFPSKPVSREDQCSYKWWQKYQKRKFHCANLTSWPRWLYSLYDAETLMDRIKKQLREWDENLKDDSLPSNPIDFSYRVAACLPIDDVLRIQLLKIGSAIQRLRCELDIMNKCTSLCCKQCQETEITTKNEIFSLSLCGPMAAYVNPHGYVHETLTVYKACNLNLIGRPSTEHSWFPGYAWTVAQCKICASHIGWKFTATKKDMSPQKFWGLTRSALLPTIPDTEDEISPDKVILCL
T2 sequence (Q16678 whole entry): as the sequence (Q16678 whole entry) above
T2 sequence (P40337 whole entry): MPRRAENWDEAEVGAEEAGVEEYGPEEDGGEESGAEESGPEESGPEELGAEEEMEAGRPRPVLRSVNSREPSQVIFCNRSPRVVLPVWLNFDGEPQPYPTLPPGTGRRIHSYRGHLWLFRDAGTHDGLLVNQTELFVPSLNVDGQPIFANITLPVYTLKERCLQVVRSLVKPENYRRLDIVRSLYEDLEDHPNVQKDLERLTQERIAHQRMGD

Row | Compound | fold change (FC) [1] | fold change (FC) [2] | fold change (FC) [3] | Activity [4] | Activity [5] | fold change (FC) [6]
1 | O=C1CCC(N2C(=O)c3cccc(NC(=O)CN4CCN(CCCCCCCC(=O)Nc5ccc(-c6csc(-c7csc(Nc8ccc(Cl)cc8)n7)n6)cc5)CC4)c3C2=O)C(=O)N1 (centres undefined) | 1 | 0.7 |  |  |  | 
2 | O=C1CCC(N2C(=O)c3cccc(NC(=O)CN4CCN(CCCCCCCCCC(=O)Nc5ccc(-c6csc(-c7csc(Nc8ccc(Cl)cc8)n7)n6)cc5)CC4)c3C2=O)C(=O)N1 (centres undefined) | 1.2 | 0.8 |  |  |  | 
3 | Cc1ncsc1-c1ccc([C@H](C)NC(=O)[C@@H]2C[C@@H](O)CN2C(=O)[C@@H](NC(=O)CCCCCCCOc2ccccc2-c2csc(-c3csc(Nc4ccc(Cl)cc4)n3)n2)C(C)(C)C)cc1 |  |  | 0.4 | > 70% | 60% | 0.2
4 | O=C1CCC(N2Cc3c(NC(=O)CCCCCCCCCC(=O)Nc4ccc(-c5csc(-c6csc(Nc7ccc(Cl)cc7)n6)n5)cc4)cccc3C2=O)C(=O)N1 (centres undefined) | 1.3 | 1.1 |  |  |  | 
5 | O=C1CCC(N2Cc3c(NC(=O)CCCCCCCCCCCC(=O)Nc4ccc(-c5csc(-c6csc(Nc7ccc(Cl)cc7)n6)n5)cc4)cccc3C2=O)C(=O)N1 (centres undefined) | 1 | 0.7 |  |  |  | 
6 | O=C1CCC(N2Cc3c(NC(=O)CCCCCCCCCCCCCC(=O)Nc4ccc(-c5csc(-c6csc(Nc7ccc(Cl)cc7)n6)n5)cc4)cccc3C2=O)C(=O)N1 (centres undefined) | 1 | 0.9 |  |  |  | 
7 | O=C1CCC(N2C(=O)c3cccc(NC(=O)CN4CCN(CCCCCCC(=O)Nc5ccc(-c6csc(-c7csc(Nc8ccc(Cl)cc8)n7)n6)cc5)CC4)c3C2=O)C(=O)N1 (centres undefined) | 0.9 | 0.8 |  |  |  | 
8 | Cc1ncsc1-c1ccc([C@H](C)NC(=O)[C@@H]2C[C@@H](O)CN2C(=O)[C@@H](NC(=O)Cn2cc(CCCCCOc3ccccc3-c3csc(-c4csc(Nc5ccc(Cl)cc5)n4)n3)nn2)C(C)(C)C)cc1 |  |  | 1.1 |  |  | 0.9
9 | O=C1CCC(N2Cc3c(NC(=O)CCCCCC(=O)Nc4ccc(-c5csc(-c6csc(Nc7ccc(Cl)cc7)n6)n5)cc4)cccc3C2=O)C(=O)N1 (centres undefined) | 1 | 1.1 |  |  |  | 
10 | Cc1ncsc1-c1ccc([C@H](C)NC(=O)[C@@H]2C[C@@H](O)CN2C(=O)[C@@H](NC(=O)CCCCCOc2ccccc2-c2csc(-c3csc(Nc4ccc(Cl)cc4)n3)n2)C(C)(C)C)cc1 |  |  | 0.5 |  |  | 1.5
11 | O=C1CCC(N2C(=O)c3cccc(NC(=O)CN4CCN(CCCCCCCCC(=O)Nc5ccc(-c6csc(-c7csc(Nc8ccc(Cl)cc8)n7)n6)cc5)CC4)c3C2=O)C(=O)N1 (centres undefined) | 1.6 | 1 |  |  |  | 
